The values below come from patent US20260306657A1, “LIPOSOME CONJUGATE TARGETING M2 MACROPHAGE AND USE THEREOF” (HANGZHOU NORMAL UNIVERSITY, priority 2022, published 2026).

One experiment concerns M2 macrophages. In words: Cytotoxicity of ELE on M1 and M2 macrophages (CCK-8 method). The class given is cell-based. Particulars: 24 h, at 5 concentrations (10-160 μg/mL), * P<0.05, n=3. On the procedure:
(2) The toxicity of ELE on M1 and M2 macrophages was studied using the CCK-8 method. RAW264.7 cells were pre-treated to polarize into M1 and M2 macrophages, and the M1 and M2 macrophages (2×10^5 cells/well) were inoculated in a 96-well plate. After culturing for 24 h, the cells were treated with 100 μL of DMEM high-glucose media containing ELE (drug concentrations being 10 μg/mL, 20 μg/mL, 40 μg/mL, 80 μg/mL, and 160 μg/mL, respectively) for 24 h. ELE was dissolved and diluted in medium containing 1% % ethanol, and untreated cells were used as a control. 100 μL of 10% CCK-8 solution was added into each well and incubated for 2 h. The absorbance at 450 nm was measured using an enzyme-labeled instrument, and the IC 50 values of each group of drugs were calculated and analyzed using Graphpad Prism 9.0. A schematic diagram of the cytotoxicity of different concentrations of ELE on M1 and M2 macrophages is shown in FIG. 6, where n=3, x±SD, * P<0.05, *** P<0.001, **** P<0.0001.

The test system of the next experiment is 4T1 breast cancer cells. In words: Cytotoxicity on 4T1 breast cancer cells (CCK-8 method). The class given is cell-based. Particulars: 24 h, CCK-8, n=3. On the procedure: Cytotoxicity Studies of Tumor-Targeted Liposomes:
(1) The toxicity of ELE to 4T1 breast cancer cells was studied using a CCK-8 method. 4T1 cells (2×10^4 cells/well) were inoculated in a 96-well plate. After culturing for 24 h, the cells were treated with RMPI-1640 media containing ELE, ELE/Lipo, ELE/Lipo-AS1411, and FA-ELE/Lipo-AS1411 (drug concentrations being 10 μg/mL, 20 μg/mL, 40 μg/mL, 80 μg/mL, and 160 μg/mL, respectively) for 24 h. ELE was dissolved and diluted in medium containing 1% 0 ethanol, and untreated cells were used as a control. 100 μL of 10% CCK-8 solution was added into each well and incubated for 2 h. The absorbance at 450 nm was measured using an enzyme-labeled instrument, and the IC50 value of each drug group was calculated and analyzed using Graphpad9.0. A schematic diagram of the cytotoxicity of different concentrations of free ELE, ELE/Lipo, ELE/Lipo-AS1411, and FA-ELE/Lipo-AS1411 on 4T1 cells was shown in FIG. 5, where n=3, x±SD, ** P<0.01, *** P<0.001, **** P<0.0001 (vs. ELE); #P<0.05, ###P<0.001 (vs. ELE/Lipo-AS1411).

For Elemene, the “toxic effect on M2 macrophages (vs. M1 macrophages)” value in the experiment on M2 macrophages is given as “selective toxic effect on M2 macrophages”. The same substance gave an IC50 in the experiment with 4T1 breast cancer cells of 921.4 µg/mL.
